Each structure is given as a SMILES string.

Data on two compounds can be found in patent US20260250278A1, “PHENYL-SUBSTITUTED DIHYDRONAPHTHYRIDINE COMPOUNDS, AND PREPARATION AND USE THEREOF” (SUZHONG PHARMACEUTICAL GROUP CO., LTD., priority 2022, published 2026).

Holding throughout (type): in vivo
Series [1] can be described thus: Tissue distribution, AUC ratio of heart to kidney. As to conditions: compared with Finerenone.
The nature of series [2]: Pharmacokinetic test of mice (intravenous administration). As to conditions: mouse, plasma; CD1 mice, intravenous 1 mg/kg. The method, then:
This experiment was intended to evaluate a pharmacokinetic behavior of a compound after intravenous injection or intragastric administration in the mice. Intravenous injection administration: a test compound was prepared into 0.2 mg/mL clear solution, a solvent was 10% ethanol/40% polyethylene glycol 400/50% ultrapure water, and after administration, plasma was collected 0.083 hour, 0.25 hour, 0.5 hour, 1 hour, 2 hours, 4 hours, 8 hours, 24 hours and 48 hours later.
(§1) A concentration of the test compound in the plasma was determined by high-performance liquid chromatography-tandem mass spectrometry (LC-MS/MS). Retention time, chromatogram collection and chromatogram integration of compounds and internal standards were treated by software Analyst (Applied Biosystems), and data statistics was treated by software Analyst (Applied Biosystems).
(§2) A plasma concentration was treated by a non-atrioventricular model of Winnonlin™ Version 6.1 (Pharsight, Mountain View, CA) pharmacokinetic software, and pharmacokinetic parameters were calculated by a linear logarithmic trapezoid method.

The nature of series [3]: Pharmacokinetic test of rats (intravenous and intragastric administration). As to conditions: SD rats; for AUC(0-t) / Cmax / clearance / half-life: rat, plasma. On the procedure:
This experiment was intended to evaluate a pharmacokinetic behavior of an implementing compound after intravenous injection or intragastric administration in the rats. Intravenous injection administration: a test compound was prepared into 0.2 mg/mL clear solution, a solvent was 10% ethanol, 40% polyethylene glycol 400 and 50% water, and after administration, plasma was collected 0.083 hour, 0.25 hour, 0.5 hour, 1 hour, 2 hours, 4 hours, 8 hours and 24 hours later. Intragastric administration: a test compound was prepared into 1 mg/mL clear solution, a solvent was 10% ethanol/40% polyethylene glycol 400/50% water, and after administration, plasma was collected 0.25 hour, 0.5 hour, 1 hour, 2 hours, 4 hours, 8 hours and 24 hours later.
as §1, §2
Pharmacokinetic parameters of the compounds in the rats with an intravenous injection dose of 1 mg/kg and an intragastric and oral dose of 5 mg/kg were as shown in Table 20 below.

Where [4] appears, read: intragastric and oral administration 5 mg/kg.

Broadly, the AUC(0-t) is exposure summed from dosing to a finite time, without extrapolation to infinity. Read a low AUC(0-t) as less exposure. What is called Cmax is the maximum level reached in the sampled fluid or tissue. A word on the clearance: it is a measure of how efficiently the substance is removed, as volume per time. Low readings indicate inefficient removal, high ones efficient removal. Broadly, the half-life is the time needed for the level to fall by half in the phase considered. With `CCOc1ncc(C)c2c1[C@H](c1ccc(C#N)c3c1OCC3)C(C(N)=O)=C(C)N2` [Example 36, (S)-4-(4-cyano-2,3-dihydrobenzofuran-7-yl)-5-ethoxy-2,8-dimethyl-1,4-dihydro-1,6-naphthyridine-3-formamide], in series [1], the “AUC (tissue distribution) ratio of heart to kidney” value is “lower”. The same compound returned an AUC(0-t) in series [2] of 206 µg·h/mL. In series [3] (setting [4]), this compound gave an F of 73.74%, an exposure AUC(0-t) of 365 µg·h/mL and a maximum concentration (Cmax) of 37 µg/mL. For the same compound, in series [3] (intravenous 1 mg/kg), the AUC(0-t) stood at 94.1 µg·h/mL, the clearance worked out at 0.14 mL/min/kg and the half-life is 12.1 h.
`CCOc1ncc(C)c2c1[C@H](c1ccc(C#N)c3c1OCO3)C(C(N)=O)=C(C)N2` [Example 62, (S)-4-(7-cyanobenzo[d][1,3]dioxol-4-yl)-5-ethoxy-2,8-dimethyl-1,4-dihydro-1,6-naphthyridine-3-formamide] came in with an exposure AUC(0-t) in series [2] of 201 µg·h/mL. In series [3] (setting [4]), this compound gave an F of 78.09%, an area under the curve AUC(0-t) of 361 µg·h/mL and a Cmax of 24 µg/mL. In series [3] (intravenous 1 mg/kg), this compound gave an AUC(0-t) of 106 µg·h/mL, a clearance of 0.13 mL/min/kg and a half-life of 10.1 h.
